ChEMBL document CHEMBL5226385, “The Antiangiogenic and Antitumor Effects of Scoparasin B in Non-Small-Cell Lung Cancer” (J Nat Prod, 2023)
Activity calls are given as the source filed them. The rule behind the calls is not given here.

Tests used:
[1] = molecular target: Vascular endothelial growth factor receptor 2 (Homo sapiens) (UniProt P35968); assay: Inhibition of VEGF-A-mediated VEGF-R2 signaling pathway in human NCI-H1299 cells assessed as reduction in VEGF-R2 phosphorylation at Tyr1175 residue at 5 to 15 nM by western blot analysis; assay type: cell-based; details: dose 5-15 nM
[2] = tested on: HUVEC; assay: Downregulation of VEGFR2 protein expression in human HUVEC cells at 5 to 15 nM incubated for 36 hrs by western blot analysis; assay type: functional, cell-based; details: dose 5-15 nM
[3] = tested on: HUVEC; assay: Inhibition of pericyte-mediated angiogenesis in PKH26-labeled human HUVEC cells assessed as reduction in PKH67-labeled HBVP recruitment to newly formed capillary by endothelial cells by measuring reduction in overall vessel coverage for branch points and total tube lengths at 5 to 15 nM pericytes pretreated with compound for 48 hrs followed by incubation with endothelial cells and measured within 3 hrs by Matrigel-based fluorescence analysis; assay type: functional, cell-based; details: dose 5-15 nM, time 51.0 hrs
[4] = tested on: NCI-H1299; assay: Downregulation of VE-Cadherin mRNA expression in human NCI-H1299 cells at 5 to 15 nM incubated for 24 hrs by qPCR analysis; assay type: functional, cell-based; details: dose 5-15 nM
[5] = Toxicity against BALB/c nude mouse xenografted with human NCI-H1299 cells assessed as morphological changes in heart at 0.75 to 1.5 mg/kg, ip administered every other day for 20 days by Hematoxylin and eosin staining based inverted microscopic analysis; assay type: organism-based; details: in vivo, 480 h, dose 0.75-1.5 mg/kg, time 20 day
[6] = tested on: Mus musculus; assay: Inhibition of vasculogenic-mimicry in BALB/c nude mouse xenografted with human NCI-H1299 cells assessed as reduction in pericyte coverage around CD31-positive endothelial blood vessels at 0.75 to 1.5 mg/kg, ip administered every other day for […] by immunofluorescence analysis; assay type: functional, organism-based; details: dose 0.75-1.5 mg/kg
[7] = tested on: NCI-H1299; assay: Inhibition of vasculogenic-mimicry in human NCI-H1299 cells assessed as inhibition of cell migration at 5 to 15 nM measured after 24 hrs by Transwell migration assay; assay type: functional, cell-based; details: dose 5-15 nM
[8] = tested on: NCI-H1299; assay: Inhibition of vasculogenic-mimicry in human NCI-H1299 cells assessed as inhibition of capillary-like network formation by measuring reduction in tube number and vascular branches at 5 to 15 nM measured after 6 hrs by Matrigel-based analysis; assay type: functional, cell-based; details: dose 5-15 nM
[9] = tested on: HBVP; assay: Inhibition of PDGFR-beta protein expression in human HBVP cells at 5 to 15 nM incubated for 24 hrs by western blot analysis; assay type: functional, cell-based; details: dose 5-15 nM
[10] = tested on: NCI-H1299; assay: Downregulation of N-Cadherin mRNA expression in human NCI-H1299 cells at 5 to 15 nM incubated for 24 hrs by qPCR analysis; assay type: functional, cell-based; details: dose 5-15 nM
[11] = tested on: HMEC-1; assay: Downregulation of VEGFR2 protein expression in human HMEC-1 cells at 5 to 15 nM incubated for 36 hrs by western blot analysis; assay type: functional, cell-based; details: dose 5-15 nM
[12] = tested on: Mus musculus; assay: Downregulation of VEGF-A protein expression in tumor of BALB/c nude mouse xenografted with human NCI-H1299 cells at 0.75 to 1.5 mg/kg, ip administered every other day for 20 days by immunohistochemical analysis; assay type: functional, organism-based; details: dose 0.75-1.5 mg/kg, time 20.0 day
[13] = tested on: NCI-H1299; assay: Downregulation of Vimentin mRNA expression in human NCI-H1299 cells at 5 to 15 nM incubated for 24 hrs by qPCR analysis; assay type: functional, cell-based; details: dose 5-15 nM
[14] = tested on: HUVEC; assay: Antiangiogenic activity against human HUVEC cells assessed as inhibition of cell invasion measured after 24 hrs by Transwell invasion assay; assay type: functional, cell-based; details: dose 5-15 nM
[15] = Toxicity against BALB/c nude mouse xenografted with human NCI-H1299 cells assessed as morphological changes in kidneys at 0.75 to 1.5 mg/kg, ip administered every other day for 20 days by Hematoxylin and eosin staining based inverted microscopic analysis; assay type: organism-based; details: in vivo, 480 h, dose 0.75-1.5 mg/kg, time 20 day
[16] = tested on: NCI-H1299; assay: Downregulation of VE-Cadherin protein expression in human NCI-H1299 cells at 5 to 15 nM incubated for 24 hrs by western blot analysis; assay type: functional, cell-based; details: dose 5-15 nM
[17] = molecular target: Vascular endothelial growth factor receptor 2 (Homo sapiens) (UniProt P35968); assay: Inhibition of VEGF-A-mediated VEGFR2 signaling pathway in human HMEC-1 cells assessed as reduction in FAK phosphorylation at Tyr397 residue at 5 to 15 nM incubated for 36 hrs by western blot analysis; assay type: cell-based; details: dose 5-15 nM
[18] = species on record: Rattus norvegicus; assay: Ex vivo antiangiogenic activity against Sprague-Dawley rat aorta rings assessed as reduction in microvessel sprouting from aortic rings by measuring reduction in segment formation measured after 6 days by microscopic analysis; assay type: functional; details: dose 5-20 nM, time 6.0 day
[19] = molecular target: Vascular endothelial growth factor receptor 2 (Homo sapiens) (UniProt P35968); assay: Inhibition of VEGF-A-mediated VEGFR2 signaling pathway in human HUVEC cells assessed as reduction in VEGFR2 phosphorylation at Tyr1175 residue at 5 to 15 nM incubated for 36 hrs by western blot analysis; assay type: cell-based; details: dose 5-15 nM
[20] = tested on: HUVEC; assay: Antiangiogenic activity against human HUVEC cells assessed as inhibition of cell migration measured after 8 hrs by scratch wound healing assay; assay type: functional, cell-based; details: dose 5-15 nM
[21] = tested on: NCI-H1299; assay: Upregulation of E-Cadherin mRNA expression in human NCI-H1299 cells at 5 to 15 nM incubated for 24 hrs by qPCR analysis; assay type: functional, cell-based; details: dose 5-15 nM
[22] = molecular target: Vascular endothelial growth factor receptor 2 (Homo sapiens) (UniProt P35968); assay: Inhibition of VEGF-A-mediated VEGFR2 signaling pathway in human HMEC-1 cells assessed as reduction in VEGFR2 phosphorylation at Tyr1175 residue at 5 to 15 nM incubated for 36 hrs by western blot analysis; assay type: cell-based; details: dose 5-15 nM
[23] = Toxicity against BALB/c nude mouse xenografted with human NCI-H1299 cells assessed as morphological changes in liver at 0.75 to 1.5 mg/kg, ip administered every other day for 20 days by Hematoxylin and eosin staining based inverted microscopic analysis; assay type: organism-based; details: in vivo, 480 h, dose 0.75-1.5 mg/kg, time 20 day
[24] = molecular target: Vascular endothelial growth factor receptor 2 (Homo sapiens) (UniProt P35968); assay: Inhibition of VEGF-A-mediated VEGFR2 signaling pathway in human HUVEC cells assessed as reduction in Akt phosphorylation at Thr308 residue at 5 to 15 nM incubated for 36 hrs by western blot analysis; assay type: cell-based; details: dose 5-15 nM
[25] = tested on: HUVEC; assay: Antiangiogenic activity against human HUVEC cells assessed as inhibition of capillary tube-like structure formation incubated for 6 hrs by Matrigel based analysis; assay type: functional, cell-based; details: dose 5-20 nM
[26] = tested on: HMEC-1; assay: Downregulation of VEGF-A protein expression in human HMEC-1 cells at 5 to 15 nM incubated for 36 hrs by western blot analysis; assay type: functional, cell-based; details: dose 5-15 nM
[27] = species on record: Rattus norvegicus; assay: Ex vivo antiangiogenic activity against Sprague-Dawley rat aorta rings assessed as reduction in microvessel sprouting from aortic rings by measuring reduction in total microvessel lengths measured after 6 days by microscopic analysis; assay type: functional; details: dose 5-20 nM, time 6.0 day
[28] = species on record: Gallus gallus; assay: Ex vivo antiangiogenesis activity in chicken embryo chorioallantonic membrane assessed as reduction in microvessel density at 5 to 20 nM measured after 48 hrs by stereomicroscopic analysis; assay type: functional, organism-based; details: Chorioallantoic membrane, dose 5-20 nM
[29] = molecular target: Vascular endothelial growth factor receptor 2 (Homo sapiens) (UniProt P35968); assay: Inhibition of VEGF-A-mediated VEGFR2 signaling pathway in human HMEC-1 cells assessed as reduction in Akt phosphorylation at Thr308 residue at 5 to 15 nM incubated for 36 hrs by western blot analysis; assay type: cell-based; details: dose 5-15 nM
[30] = molecular target: Vascular endothelial growth factor receptor 2 (Homo sapiens) (UniProt P35968); assay: Inhibition of VEGF-A-mediated VEGFR2 signaling pathway in human HUVEC cells assessed as reduction in mTOR phosphorylation at Ser2448 residue at 5 to 15 nM incubated for 36 hrs by western blot analysis; assay type: cell-based; details: dose 5-15 nM
[31] = Toxicity against BALB/c nude mouse xenografted with human NCI-H1299 cells assessed as morphological changes in spleen at 0.75 to 1.5 mg/kg, ip administered every other day for 20 days by Hematoxylin and eosin staining based inverted microscopic analysis; assay type: organism-based; details: in vivo, 480 h, dose 0.75-1.5 mg/kg, time 20 day
[32] = tested on: NCI-H1299; assay: Inhibition of VEGF-A secretion in human NCI-H1299 cells at 5 to 15 nM incubated for 24 hrs by ELISA; assay type: functional, cell-based; details: dose 5-15 nM

Sequence of Vascular endothelial growth factor receptor 2 (Homo sapiens) (P35968 whole entry): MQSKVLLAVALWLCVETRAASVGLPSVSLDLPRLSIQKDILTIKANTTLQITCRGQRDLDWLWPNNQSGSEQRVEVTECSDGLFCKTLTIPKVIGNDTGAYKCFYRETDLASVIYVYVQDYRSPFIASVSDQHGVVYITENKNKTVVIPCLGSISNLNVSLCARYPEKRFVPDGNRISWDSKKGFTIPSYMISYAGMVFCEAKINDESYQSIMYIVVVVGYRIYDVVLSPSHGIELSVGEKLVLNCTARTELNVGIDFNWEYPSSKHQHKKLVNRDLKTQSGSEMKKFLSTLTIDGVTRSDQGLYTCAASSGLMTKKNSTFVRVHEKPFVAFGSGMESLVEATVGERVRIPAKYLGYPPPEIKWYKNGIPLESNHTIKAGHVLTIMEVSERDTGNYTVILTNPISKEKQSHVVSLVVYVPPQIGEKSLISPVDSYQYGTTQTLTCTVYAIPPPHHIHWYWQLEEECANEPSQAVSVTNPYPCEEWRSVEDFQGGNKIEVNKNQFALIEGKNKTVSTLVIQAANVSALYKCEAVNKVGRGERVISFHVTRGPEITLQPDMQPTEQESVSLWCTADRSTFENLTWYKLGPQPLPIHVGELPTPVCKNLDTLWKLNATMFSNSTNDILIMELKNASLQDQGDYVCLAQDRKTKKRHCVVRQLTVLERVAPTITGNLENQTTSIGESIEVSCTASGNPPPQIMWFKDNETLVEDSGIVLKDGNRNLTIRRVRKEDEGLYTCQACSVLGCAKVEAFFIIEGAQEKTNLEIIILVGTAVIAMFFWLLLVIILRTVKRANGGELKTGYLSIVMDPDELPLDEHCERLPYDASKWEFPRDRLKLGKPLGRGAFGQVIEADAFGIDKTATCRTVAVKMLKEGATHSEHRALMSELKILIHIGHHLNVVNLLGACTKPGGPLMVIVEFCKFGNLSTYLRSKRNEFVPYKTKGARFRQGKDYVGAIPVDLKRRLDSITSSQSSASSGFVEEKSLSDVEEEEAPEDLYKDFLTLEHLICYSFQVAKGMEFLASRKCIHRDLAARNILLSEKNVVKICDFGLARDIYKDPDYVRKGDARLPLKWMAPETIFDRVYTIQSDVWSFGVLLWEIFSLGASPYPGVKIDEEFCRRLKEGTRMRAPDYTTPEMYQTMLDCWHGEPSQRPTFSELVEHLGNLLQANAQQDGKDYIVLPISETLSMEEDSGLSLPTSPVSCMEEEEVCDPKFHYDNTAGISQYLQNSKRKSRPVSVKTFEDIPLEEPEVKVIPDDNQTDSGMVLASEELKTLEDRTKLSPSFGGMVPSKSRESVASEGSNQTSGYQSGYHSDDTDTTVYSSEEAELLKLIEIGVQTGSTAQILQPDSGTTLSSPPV

COc1ccc(C[C@@H]2NC(=O)[C@@]34OC(=O)O/C=C/[C@@](C)(O)C(=O)[C@@H](C)C/C=C/[C@H]3[C@H](O)[C@](C)(O)[C@@H](C)[C@@H]24)cc1 [SCOPARASIN B]
inhibition [1]: Active
inhibition [2]: inactive
inhibition [3]: Active
inhibition [4]: Active
Activity [5]: Non-Toxic
inhibition [6]: Active
inhibition [7]: Active
inhibition [8]: Active
inhibition [9]: inactive
inhibition [10]: Active
inhibition [11]: inactive
inhibition [12]: Active
inhibition [13]: Active
Activity [14]: Dose-Dependent Effect
Activity [15]: Non-Toxic
inhibition [16]: Active
inhibition [17]: Active
Activity [18]: Dose-Dependent Effect
inhibition [19]: Active
Activity [20]: Dose-Dependent Effect
Activity [21]: Active
inhibition [22]: Active
Activity [23]: Non-Toxic
inhibition [24]: Active
Activity [25]: Dose-Dependent Effect
inhibition [26]: Active
Activity [27]: Dose-Dependent Effect
Activity [28]: Active
inhibition [29]: Active
inhibition [30]: Active
Activity [31]: Non-Toxic
inhibition [32]: Active
